Laboratory results from patent publication US20060079453A1, “Hla binding peptides and their uses” (priority 2002, published 2006).
No end group written: not given here.

Assays:
Assay in all cases: biochemical
Format in all cases: binding
HLA-DR DRB3*0101 (DR52) = HLA-DR DRB3*0101 (DR52) (Homo sapiens, UniProt P01903+P79483)
HLA-DR DRB1*0401 (DR4) = HLA-DR DRB1*0401 (DR4) (Homo sapiens, UniProt P01903+P01911, A100K/A169T/F76Y/I96L/K127E/L162R/M171V/N62H/P40V/Q125Y/R42H/S133A/S149N/S66Y/V115G/V209L/W38E); details: DRB1 *0401
HLA-DR DRB5*0101 (DR51) = HLA-DR DRB5*0101 (DR51) (Homo sapiens, UniProt P01903+Q30154); details: DRB5 *0101
HLA-DR DRB1*0701 (DR7) = HLA-DR DRB1*0701 (DR7) (Homo sapiens, UniProt P01903+P01911, A100R/A102G/A103Q/D57E/D86V/E43K/F76Y/K127E/L162R/M171V/P40G/Q125H/Q99D/R33Q/R42Y/R54Q/S133A/S66F/T210M/V115G/Y107V/Y59L/Y89S); details: DRB1 *0701
HLA-DR DRB1*0301 (DR3) = HLA-DR DRB1*0301 (DR3) (Homo sapiens, UniProt P01903+P01911, A100K/A102G/A103R/A169T/F55Y/I96L/K41T/L162R/M171V/P40S/Q125H/Q178H/Q39Y/R42S/S66N/T106N/T262R/W38E/Y61H)
Chain of HLA-DR DRB1*0301 (DR3) (P01903 26-254 limits assumed, other chains not shown): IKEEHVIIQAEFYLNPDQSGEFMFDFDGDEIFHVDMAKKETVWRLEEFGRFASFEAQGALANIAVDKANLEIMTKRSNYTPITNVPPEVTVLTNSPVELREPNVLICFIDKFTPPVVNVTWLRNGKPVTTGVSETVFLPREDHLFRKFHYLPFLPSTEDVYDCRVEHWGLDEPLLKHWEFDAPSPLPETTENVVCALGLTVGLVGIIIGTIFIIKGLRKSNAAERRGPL

HLA-DR DRB1*0901 (DR9) = HLA-DR DRB1*0901 (DR9) (Homo sapiens, UniProt P01903+P01911, A100R/A103E/D57H/D86V/F55Y/F60I/F76Y/I96F/K127E/L162R/M171V/P40D/Q125H/Q99R/R33Q/R42F/S133A/S66N/T210M/V115G/W38K/Y107V/Y59G/Y89S); details: DRB1 *0901
HLA-DR DRB1*1501 (DR15) = HLA-DR DRB1*1501 (DR15) (Homo sapiens, UniProt P01903+P01911); details: DRBI *1501
HLA-DR DRB4*0101 (DR53) = HLA-DR DRB4*0101 (DR53) (Homo sapiens, UniProt P01903+P13762, G164S); details: DRB4 *0101
HLA-DR DRB1*0802 (DR8) = HLA-DR DRB1*0802 (DR8) (Homo sapiens, UniProt P01903+P01911, A100R/A103L/A169T/F76Y/H45Y/I96F/K41T/L162R/M171V/P40S/Q125H/Q178H/Q39Y/Q99D/R218S/R42G/S66Y/V115G/W38E)
HLA-DR DRB1*0101 (DR1) = HLA-DR DRB1*0101 (DR1) (Homo sapiens, UniProt P01903+P01911, A100R/D57E/F55L/F60I/F76Y/I96L/L162R/M171V/P40L/Q125E/R42F/V115G/Y59C); details: DRB1 *0101
HLA-DR DRB1*1302 (DR13) = HLA-DR DRB1*1302 (DR13) (Homo sapiens, UniProt P01903+P01911, A100E/A169T/K41T/L162R/M171V/P40S/Q125H/Q178H/Q39Y/Q99D/R42S/S66N/T262R/V115G/W38E/Y61H); details: DRBI *1302
Chain of HLA-DR DRB1*1302 (DR13) (P01903 26-254 limits assumed, other chains not shown): as above

HLA-DR DRB1*1101 (DR11) = HLA-DR DRB1*1101 (DR11) (Homo sapiens, UniProt P01903+P01911, A100R/A169T/A87E/I96F/K41T/L162R/M171V/P40S/Q125H/Q178H/Q39Y/Q99D/R42S/S66Y/T262R/V115G/W38E); details: DRB1 *1101
Chain of HLA-DR DRB1*1101 (DR11) (P01903 26-254 limits assumed, other chains not shown): as above

| Molecule | IC50 (HLA-DR DRB3*0101 (DR52)) [µM] | IC50 (HLA-DR DRB1*0401 (DR4)) [µM] | IC50 (HLA-DR DRB5*0101 (DR51)) [µM] | IC50 (HLA-DR DRB1*0701 (DR7)) [µM] | IC50 (HLA-DR DRB1*0301 (DR3)) [µM] | IC50 (HLA-DR DRB1*0901 (DR9)) [µM] | IC50 (HLA-DR DRB1*1501 (DR15)) [µM] | IC50 (HLA-DR DRB4*0101 (DR53)) [µM] | IC50 (HLA-DR DRB1*0802 (DR8)) [µM] | IC50 (HLA-DR DRB1*0101 (DR1)) [µM] | IC50 (HLA-DR DRB1*1302 (DR13)) [µM] | IC50 (HLA-DR DRB1*1101 (DR11)) [µM] |
| --- | --- | --- | --- | --- | --- | --- | --- | --- | --- | --- | --- | --- |
| CC(C)C[C@H](NC(=O)[C@@H](NC(=O)[C@H](CCC(=O)O)NC(=O)[C@H](C)NC(=O)[C@H](C)NC(=O)[C@H](C)NC(=O)[C@H](CCC(N)=O)NC(=O)[C@@H](NC(=O)[C@@H](NC(=O)[C@H](Cc1ccccc1)NC(=O)[C@H](C)NC(=O)[C@H](C)NC(=O)[C@@H](N)C(C)C)[C@@H](C)O)C(C)C)[C@@H](C)O)C(=O)N[C@@H](CO)C(=O)N[C@@H](CCC(=O)O)C(=O)O | 2.12 | 0.058 | 0.378 | 0.793 | > 75 | 0.127 | 18.2 | 0.464 | 1.42 | 0.014 | – | – |
| GRAVCGGVLVHPQWV | > 12.1 | > 26.7 | ≥ 100 | 3.58 | – | 8.07 | 12.9 | 0.062 | > 245 | 0.386 | 5.46 | > 50 |
| KSRLQGGVLVNEILN | > 15 | > 26.7 | > 100 | 2.84 | – | 5.52 | > 30.3 | 0.713 | > 81.7 | 0.362 | 0.318 | > 66.7 |
| NGVLQGITSWGPEPC | > 14.4 | 8.43 | > 100 | 2.29 | – | 50.1 | 0.835 | 5.76 | 52.2 | 1.09 | > 17.5 | 32.4 |
| PEEFLRPRSLQCVSL | > 14.4 | > 26.7 | 57.5 | 5.16 | – | 5.84 | 3.19 | 0.117 | 2.21 | 2 | 11.7 | 10.7 |
| PHPLYNMSLLKHQSL | > 14.9 | 0.819 | 1.9 | 20.7 | – | 1.59 | 3.87 | 0.049 | 3.31 | 19.1 | 3.31 | 6.46 |
| SLSLGFLFLLFFWLD | 3.71 | 4.71 | 66.7 | 22.7 | – | 24.6 | 11.4 | > 11 | > 123 | 11.4 | 0.639 | 100 |
